Each structure is given as a SMILES string.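 Interpolation was linear, between the two tested concentrations surrounding the appropriate level; five concentrations were tested over 48 hours in 96-well plates. TGI denotes the concentration required for complete inhibition of growth.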

TGI data for 20 compounds are collected here from PubChem BioAssay (NCI).

What all share (test): NCI anticancer screen, dose series, 48 h
In assay [1] the test system is HS 578T breast.
Assay [2] deals with MDA-MB-435.
Assay [3] relates to SK-MEL-28 melanoma.
Assay [4] concerns OVCAR-8 ovarian.
In assay [5] the test system is MCF7 breast.
Assay [6] deals with EKVX NSCLC.
The subject of assay [7] is SK-OV-3 ovarian.
Assay [8] concerns NCI-H23 lung.
Assay [9] concerns HOP-92 NSCLC.
Assay [10] deals with SF-295 CNS.

For `COC(=O)C1=C(C(=O)OC)SC2(S1)C(C(=O)OC)=C(C(=O)OC)Sc1c2ssc1=NC(C)(C)C`, the TGI in assay [1] came to 18.5 µM; in [2] it was 3.08 µM; in assay [3], 5.02 µM; in assay [4] it was 3.77 µM; in [5], 3.22 µM; in assay [6], 3.36 µM. For the same compound, the TGI was 18.1 µM in assay [7], 6.66 µM in assay [8], 2.76 µM in [9] and 27.7 µM in assay [10].

`CCOC(=O)[C@@H]1ON2OC(OC3CCCC3(c3ccccc3)c3ccccc3)C(OC(C)=O)[C@H]3OC(=O)[C@@H]1C32` (stereo not given in full): the TGI is greater than 100 µM in [1]; greater than 100 µM in assay [2]; greater than 100 µM in [3]; greater than 100 µM in assay [4]; 50.4 µM in assay [5]; greater than 100 µM in assay [6]. The TGI in assay [7], in assay [8], in [9] and in assay [10] was greater than 100 µM each time.

For the compound `OC1C[C@H](c2ccccc2)C2(C(O)c3ccccc3C2O)[C@@H](c2ccccc2)C1` (stereo not given in full), the TGI in assay [1], in assay [2], in [3], in assay [4], in assay [5] and in assay [6] was greater than 100 µM each time. Besides, the TGI in assay [7], in [8], in [9] and in [10] was greater than 100 µM each time.

With `C[C@H]1COC2=C1C(=O)C(=O)c1c2ccc2c1CCCC2(C)C`, the TGI in assay [1] was 9.55 µM; in assay [2], 2.74 µM; in assay [3], 20.6 µM; in [4] it was 22.9 µM; in [5], 7.88 µM; in assay [6], 71.7 µM. For the same compound, the TGI in assay [7] was 83.6 µM; in [8] it was 3.57 µM; in assay [9], greater than 100 µM; in assay [10], 3.73 µM.

As for `CCC(NC1=NCCO1)c1cccs1` (stereo not given), the TGI in [1] was 26.4 µM; in assay [2], 27.6 µM; in assay [3] it was 29 µM; in assay [4], 30.3 µM; in assay [5], 29 µM; in assay [6], 31.1 µM. The TGI in [7] is 27.3 µM; in [8], 31.6 µM; in assay [9] it was 32.6 µM; in [10], 28.4 µM.

As for `COc1cc(CS(=O)c2ccc(O)cc2)cc(OC)c1OC` (stereo not given), the TGI in assay [1], in assay [2], in assay [3], in [4], in assay [5] and in [6] was greater than 100 µM in each case. Besides, the TGI in assay [7], in assay [8], in assay [9] and in [10] was greater than 100 µM throughout.

For the compound `CC(C)(C)[Si](C)(C)OCC1OC(n2cnc3c(=O)[nH]c(N)nc32)C(O[Si](C)(C)C(C)(C)C)C1O[Si](C)(C)C(C)(C)C` (stereo not given), the TGI is 7.65 µM in [1]; 2.88 µM in assay [2]; 3.89 µM in assay [3]; 11.3 µM in assay [4]; 3.9 µM in assay [5]; greater than 46.6 µM in [6]. For the same compound, the TGI in assay [7] was found to be 4.45 µM; in [8], 2.9 µM; in assay [9] it was 7.37 µM; in assay [10] it was 12 µM.

With `O=C1CC2CCC(C1)S2=O` (stereo not given), the TGI in assay [1], in assay [2], in [3], in assay [4], in assay [5] and in assay [6] was greater than 100 µM each time. Besides, the TGI in assay [7], in assay [8], in assay [9] and in [10] was greater than 100 µM throughout.

Regarding `c1ccc(CN2CCN3CCN(CC2)CCN(Cc2ccccc2)CC3)cc1`, the TGI in [1] was 35.5 µM; in [2] it was 12.6 µM; in assay [3], 18.4 µM; in assay [4] it was 23.3 µM; in [5] it was 18.8 µM; in assay [6], 32.6 µM. Also, the TGI was 40 µM in assay [7], 21.8 µM in assay [8], 21.9 µM in assay [9] and greater than 55.2 µM in [10].

In the case of `CC1=NN(c2nc(N)nc(CF)n2)C(C)(C)C1`, the TGI in [1], in assay [2], in assay [3], in [4], in assay [5] and in assay [6] was greater than 100 µM throughout. For the same compound, the TGI in assay [7], in assay [8], in [9] and in [10] was greater than 100 µM each time.

With `CC(=O)/C(=C/N1CCNC1=S)C(=O)Nc1ccccc1C`, the TGI in assay [1], in assay [2], in assay [3], in [4], in assay [5] and in assay [6] was greater than 100 µM each time. Further, the TGI in [7], in assay [8], in assay [9] and in assay [10] was greater than 100 µM each time.

Regarding `S=c1[nH]c2ccc(I)cc2c(=S)n1Cc1ccccc1`, the TGI in assay [1] was greater than 100 µM; in assay [2], greater than 100 µM; in [3], greater than 100 µM; in [4] it was 53.6 µM; in assay [5] it was greater than 100 µM; in assay [6] it was 23.7 µM. Also, the TGI was greater than 100 µM in assay [7], 9.61 µM in assay [8], 9.34 µM in assay [9] and 11.5 µM in assay [10].

On to `C=CC(C)(C)C(=C)C(=O)Nc1ccccc1I`, for which the TGI in assay [1], in assay [2], in assay [3], in assay [4], in assay [5] and in assay [6] was greater than 100 µM in each case. The TGI in [7], in assay [8], in [9] and in assay [10] was greater than 100 µM in each case.

As for `[N-]=[N+]=Nc1c([N+](=O)[O-])c(=O)n2c3c(cccc13)CCC2`, the TGI was greater than 77.3 µM in assay [1]; 31.2 µM in assay [2]; 16.3 µM in [3]; 35.1 µM in [4]; 27 µM in assay [5]; 41.8 µM in assay [6]. Further, the TGI in [7] is greater than 100 µM; in assay [8], 43.6 µM; in [9], 30 µM; in assay [10], greater than 100 µM.

As to `CN(C)CCCNCc1cccc2ccccc12`, the TGI in assay [1], in assay [2], in assay [3], in [4], in assay [5] and in assay [6] was greater than 100 µM each time. In addition, the TGI in assay [7], in [8], in [9] and in assay [10] was greater than 100 µM each time.

As for `CC(C)(C)CC(C)(C)c1ccc(O)c(C[N+](C)(C)[O-])c1`, the TGI in assay [1], in [2], in assay [3], in assay [4], in assay [5] and in assay [6] was greater than 100 µM in each case. Also, the TGI in [7], in [8], in assay [9] and in [10] was greater than 100 µM each time.

With `O=C(O)C(=O)/C=C(\O)c1ccc(Br)cc1`, the TGI in assay [1] was greater than 100 µM; in assay [2], greater than 100 µM; in assay [3], greater than 100 µM; in assay [4], greater than 100 µM; in assay [5], greater than 100 µM; in assay [6], 82.1 µM. The TGI in [7], in assay [8], in assay [9] and in [10] was greater than 100 µM each time.

As to `CCOC(=O)/C=C(\C(=O)OCC)n1ccc(=O)[nH]c1=O`, the TGI in [1] was 99.8 µM; in assay [2], 38 µM; in [3], 33.4 µM; in assay [4], greater than 53.4 µM; in assay [5], 23.9 µM; in assay [6], 34.9 µM. Also, the TGI was greater than 76.1 µM in assay [7], 32.4 µM in assay [8], 9.04 µM in assay [9] and greater than 100 µM in assay [10].

On to `CNc1ncnc2c1cnn2Cc1cn(COCC(O)CO)nn1` (stereo not given), for which the TGI in assay [1] is 20.3 µM; in [2], greater than 100 µM; in assay [3] it was greater than 100 µM; in assay [4] it was greater than 100 µM; in assay [5], greater than 100 µM; in assay [6], greater than 100 µM. Further, the TGI in assay [7], in assay [8], in assay [9] and in [10] was greater than 100 µM throughout.

With `O=C1C(=Cc2ccc(Cl)c(Cl)c2)C([O-])=C([P+](c2ccccc2)(c2ccccc2)c2ccccc2)C([O-])=C1[P+](c1ccccc1)(c1ccccc1)c1ccccc1`, the TGI is 12.7 µM in assay [1]; 5.59 µM in [2]; 6.07 µM in [3]; 6.7 µM in assay [4]; 11.2 µM in assay [5]; 6.64 µM in assay [6]. Further, the TGI in assay [7] is 4.48 µM; in [8], 10 µM; in assay [9] it was 4.86 µM; in assay [10], 6.74 µM.
